The target in test [1] is human (hACC2) (Homo sapiens, UniProt O00763). Kind of test: In vitro ACC inhibition assay (ADP-Glo), hACC2. It is filed as biochemical. The conditions noted are these: 5 nM ACC2, 20 μM ATP, 20 μM acetyl-CoA. The method, then: The detailed procedure is as follows. […] 10 μL ADP glo reagent was added. […] 20 μL kinase detection reagent was added.
For orientation: ADP-Glo first removes unused ATP, then detects ADP through luciferase.

Test [2] relates to C. albicans. Description: Antifungal Activity Assay (broth microtiter MIC), C. albicans. The conditions noted are these: Candida albicans, ATCC90028, 48 h, ATCC 90028, 3 replicates, MIC recorded at 48 h, read-out: MIC, C. albicans ATCC 90028. It is filed as cell-based, Candida albicans. The method, then:
(§1) Compounds of the present invention were evaluated in an Antifungal Activity Assay. An exemplary procedure for the assay, which measures the susceptibility of various Candida species to antifungal compounds, follows. Compounds to be tested (including fluconazole and amphotericin B) were dissolved in DMSO to obtain a solution having a concentration of 1 mg/mL. These stock solutions were sterile filtered using a 0.22 um nylon syringe filter, then diluted in sterile water to achieve a final concentration of 128 μg/mL.
(§2) All species were grown from frozen stock by directly plating on to freshly prepared Sabouraud Dextrose agar (BD, Difco) and incubated overnight in ambient air at 35° C. for 24 h. A direct suspension was prepared in RPMI 1640+MOPS (Lonza, Biowhittaker) by taking individual colonies from the overnight cultures using sterile swabs soaked in sterile saline. The concentration of the suspension was determined using pre-determined standard curves. These suspensions were then diluted down to 5×10^3 CFU/mL to achieve a final concentration of 2.5×10^3 CFU/mL once added to the microtiter plate as per CLSI guidelines (M27-A3, Vol. 28 No. 14).
(§3) Broth microtiter MIC challenge plates were prepared following CLSI guidelines (M27-A3, Vol. 28 No. 14). The original CLSI guidelines focused on reading Candida MICs after 48 h of incubation. As reading after only 24 h offers a clear advantage of patient care, QC limits are being established for all drugs at 24 h. That being said there are no known interpretive breakpoints for amphotericin B at 24 h and the current fluconazole interpretive breakpoints are based on a 48 h reading. The MICs for the test compounds were recorded at 48 h. All MIC determinations were achieved by visually comparing the growth found in the antibiotic challenged wells to that of the growth control.

For test [3], the system named is C. krusei. Kind of test: Antifungal Activity Assay (broth microtiter MIC), C. krusei. It is filed as cell-based, Candida krusei. The conditions noted are these: Pichia kudriavzevii, ATCC6258, 48 h, ATCC 6258, 3 replicates, MIC recorded at 48 h, read-out: MIC, C. krusei ATCC 6258. The method, then:
as §1, §2, §3

In test [4] the test system is C. parapsilosis. Description: Antifungal Activity Assay (broth microtiter MIC), C. parapsilosis. It is filed as cell-based, Candida parapsilosis. The conditions noted are these: Lodderomyces parapsilosis, ATCC22019, 48 h, ATCC 22019, 3 replicates, MIC recorded at 48 h, read-out: MIC, C. parapsilosis ATCC 22019. The method, then: as §1, §2, §3
Test [5] deals with fungal (fACC2) (UniProt Q00955). The conditions noted are these: read-out: fACC2 (in vitro ACC2 Inhibition Assay, IC50), ADP-Glo, 5 nM ACC2, 20 μM ATP, 20 μM acetyl-CoA.

≈ marks a conversion by molar mass, not a printed value. Where two headings read alike, the source gives them in different places.

fungal (fACC2), sequence (Q00955 whole entry): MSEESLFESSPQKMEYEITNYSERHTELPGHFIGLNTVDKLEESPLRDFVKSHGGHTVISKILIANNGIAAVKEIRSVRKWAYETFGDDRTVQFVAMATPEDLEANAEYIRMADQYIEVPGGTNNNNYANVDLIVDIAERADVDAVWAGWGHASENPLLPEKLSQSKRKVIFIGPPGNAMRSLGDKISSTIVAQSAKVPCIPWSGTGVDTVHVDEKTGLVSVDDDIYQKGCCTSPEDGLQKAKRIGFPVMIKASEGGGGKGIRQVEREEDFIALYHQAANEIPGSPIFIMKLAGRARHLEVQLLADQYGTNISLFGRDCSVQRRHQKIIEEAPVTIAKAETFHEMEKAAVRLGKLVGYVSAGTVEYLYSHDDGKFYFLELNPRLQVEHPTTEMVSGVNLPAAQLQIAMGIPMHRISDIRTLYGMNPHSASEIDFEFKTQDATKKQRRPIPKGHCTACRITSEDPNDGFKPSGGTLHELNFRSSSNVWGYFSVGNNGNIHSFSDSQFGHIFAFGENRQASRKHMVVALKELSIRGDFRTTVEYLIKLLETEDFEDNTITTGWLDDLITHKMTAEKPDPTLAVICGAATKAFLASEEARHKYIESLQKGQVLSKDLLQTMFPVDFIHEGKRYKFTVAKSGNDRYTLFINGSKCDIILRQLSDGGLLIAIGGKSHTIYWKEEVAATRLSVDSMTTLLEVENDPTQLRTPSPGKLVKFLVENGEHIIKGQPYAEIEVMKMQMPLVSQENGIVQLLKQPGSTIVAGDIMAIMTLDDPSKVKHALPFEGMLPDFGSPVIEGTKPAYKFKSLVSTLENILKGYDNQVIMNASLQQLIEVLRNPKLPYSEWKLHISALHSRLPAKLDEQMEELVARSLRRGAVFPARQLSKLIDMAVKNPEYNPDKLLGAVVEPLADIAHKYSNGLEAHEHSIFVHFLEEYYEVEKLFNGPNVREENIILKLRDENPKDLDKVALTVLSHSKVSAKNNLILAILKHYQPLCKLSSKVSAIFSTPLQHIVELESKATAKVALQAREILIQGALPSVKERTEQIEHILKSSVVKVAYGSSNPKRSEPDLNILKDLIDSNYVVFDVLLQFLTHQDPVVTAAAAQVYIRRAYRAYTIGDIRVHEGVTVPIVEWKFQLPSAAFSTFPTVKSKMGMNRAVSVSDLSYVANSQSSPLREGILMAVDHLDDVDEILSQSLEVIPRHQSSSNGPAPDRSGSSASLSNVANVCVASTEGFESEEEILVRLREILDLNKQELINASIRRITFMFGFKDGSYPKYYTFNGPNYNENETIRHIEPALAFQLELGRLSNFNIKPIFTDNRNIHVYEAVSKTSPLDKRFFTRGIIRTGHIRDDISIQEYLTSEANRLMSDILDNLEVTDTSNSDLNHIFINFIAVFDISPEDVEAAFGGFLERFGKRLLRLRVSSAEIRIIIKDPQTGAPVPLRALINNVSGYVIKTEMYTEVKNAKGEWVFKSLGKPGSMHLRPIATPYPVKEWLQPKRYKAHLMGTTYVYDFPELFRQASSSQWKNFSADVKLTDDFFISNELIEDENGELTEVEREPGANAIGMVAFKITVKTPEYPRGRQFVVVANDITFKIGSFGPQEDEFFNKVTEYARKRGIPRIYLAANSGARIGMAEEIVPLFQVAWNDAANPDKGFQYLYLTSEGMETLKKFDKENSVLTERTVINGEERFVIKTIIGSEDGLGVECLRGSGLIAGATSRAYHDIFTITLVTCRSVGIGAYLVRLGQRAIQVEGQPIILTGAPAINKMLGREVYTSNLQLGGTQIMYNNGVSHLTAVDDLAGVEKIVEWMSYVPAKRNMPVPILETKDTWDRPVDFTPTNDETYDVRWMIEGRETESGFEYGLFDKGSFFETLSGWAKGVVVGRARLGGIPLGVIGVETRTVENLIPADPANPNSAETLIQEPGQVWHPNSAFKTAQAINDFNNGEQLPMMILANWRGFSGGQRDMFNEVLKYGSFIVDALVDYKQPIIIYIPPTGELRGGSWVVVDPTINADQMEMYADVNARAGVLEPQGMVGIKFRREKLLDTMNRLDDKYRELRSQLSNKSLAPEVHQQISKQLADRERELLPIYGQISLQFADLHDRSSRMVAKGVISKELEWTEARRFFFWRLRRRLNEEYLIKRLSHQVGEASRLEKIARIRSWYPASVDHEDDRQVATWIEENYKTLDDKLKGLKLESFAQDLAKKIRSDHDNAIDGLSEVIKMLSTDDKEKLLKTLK
human (hACC2), sequence (O00763 whole entry): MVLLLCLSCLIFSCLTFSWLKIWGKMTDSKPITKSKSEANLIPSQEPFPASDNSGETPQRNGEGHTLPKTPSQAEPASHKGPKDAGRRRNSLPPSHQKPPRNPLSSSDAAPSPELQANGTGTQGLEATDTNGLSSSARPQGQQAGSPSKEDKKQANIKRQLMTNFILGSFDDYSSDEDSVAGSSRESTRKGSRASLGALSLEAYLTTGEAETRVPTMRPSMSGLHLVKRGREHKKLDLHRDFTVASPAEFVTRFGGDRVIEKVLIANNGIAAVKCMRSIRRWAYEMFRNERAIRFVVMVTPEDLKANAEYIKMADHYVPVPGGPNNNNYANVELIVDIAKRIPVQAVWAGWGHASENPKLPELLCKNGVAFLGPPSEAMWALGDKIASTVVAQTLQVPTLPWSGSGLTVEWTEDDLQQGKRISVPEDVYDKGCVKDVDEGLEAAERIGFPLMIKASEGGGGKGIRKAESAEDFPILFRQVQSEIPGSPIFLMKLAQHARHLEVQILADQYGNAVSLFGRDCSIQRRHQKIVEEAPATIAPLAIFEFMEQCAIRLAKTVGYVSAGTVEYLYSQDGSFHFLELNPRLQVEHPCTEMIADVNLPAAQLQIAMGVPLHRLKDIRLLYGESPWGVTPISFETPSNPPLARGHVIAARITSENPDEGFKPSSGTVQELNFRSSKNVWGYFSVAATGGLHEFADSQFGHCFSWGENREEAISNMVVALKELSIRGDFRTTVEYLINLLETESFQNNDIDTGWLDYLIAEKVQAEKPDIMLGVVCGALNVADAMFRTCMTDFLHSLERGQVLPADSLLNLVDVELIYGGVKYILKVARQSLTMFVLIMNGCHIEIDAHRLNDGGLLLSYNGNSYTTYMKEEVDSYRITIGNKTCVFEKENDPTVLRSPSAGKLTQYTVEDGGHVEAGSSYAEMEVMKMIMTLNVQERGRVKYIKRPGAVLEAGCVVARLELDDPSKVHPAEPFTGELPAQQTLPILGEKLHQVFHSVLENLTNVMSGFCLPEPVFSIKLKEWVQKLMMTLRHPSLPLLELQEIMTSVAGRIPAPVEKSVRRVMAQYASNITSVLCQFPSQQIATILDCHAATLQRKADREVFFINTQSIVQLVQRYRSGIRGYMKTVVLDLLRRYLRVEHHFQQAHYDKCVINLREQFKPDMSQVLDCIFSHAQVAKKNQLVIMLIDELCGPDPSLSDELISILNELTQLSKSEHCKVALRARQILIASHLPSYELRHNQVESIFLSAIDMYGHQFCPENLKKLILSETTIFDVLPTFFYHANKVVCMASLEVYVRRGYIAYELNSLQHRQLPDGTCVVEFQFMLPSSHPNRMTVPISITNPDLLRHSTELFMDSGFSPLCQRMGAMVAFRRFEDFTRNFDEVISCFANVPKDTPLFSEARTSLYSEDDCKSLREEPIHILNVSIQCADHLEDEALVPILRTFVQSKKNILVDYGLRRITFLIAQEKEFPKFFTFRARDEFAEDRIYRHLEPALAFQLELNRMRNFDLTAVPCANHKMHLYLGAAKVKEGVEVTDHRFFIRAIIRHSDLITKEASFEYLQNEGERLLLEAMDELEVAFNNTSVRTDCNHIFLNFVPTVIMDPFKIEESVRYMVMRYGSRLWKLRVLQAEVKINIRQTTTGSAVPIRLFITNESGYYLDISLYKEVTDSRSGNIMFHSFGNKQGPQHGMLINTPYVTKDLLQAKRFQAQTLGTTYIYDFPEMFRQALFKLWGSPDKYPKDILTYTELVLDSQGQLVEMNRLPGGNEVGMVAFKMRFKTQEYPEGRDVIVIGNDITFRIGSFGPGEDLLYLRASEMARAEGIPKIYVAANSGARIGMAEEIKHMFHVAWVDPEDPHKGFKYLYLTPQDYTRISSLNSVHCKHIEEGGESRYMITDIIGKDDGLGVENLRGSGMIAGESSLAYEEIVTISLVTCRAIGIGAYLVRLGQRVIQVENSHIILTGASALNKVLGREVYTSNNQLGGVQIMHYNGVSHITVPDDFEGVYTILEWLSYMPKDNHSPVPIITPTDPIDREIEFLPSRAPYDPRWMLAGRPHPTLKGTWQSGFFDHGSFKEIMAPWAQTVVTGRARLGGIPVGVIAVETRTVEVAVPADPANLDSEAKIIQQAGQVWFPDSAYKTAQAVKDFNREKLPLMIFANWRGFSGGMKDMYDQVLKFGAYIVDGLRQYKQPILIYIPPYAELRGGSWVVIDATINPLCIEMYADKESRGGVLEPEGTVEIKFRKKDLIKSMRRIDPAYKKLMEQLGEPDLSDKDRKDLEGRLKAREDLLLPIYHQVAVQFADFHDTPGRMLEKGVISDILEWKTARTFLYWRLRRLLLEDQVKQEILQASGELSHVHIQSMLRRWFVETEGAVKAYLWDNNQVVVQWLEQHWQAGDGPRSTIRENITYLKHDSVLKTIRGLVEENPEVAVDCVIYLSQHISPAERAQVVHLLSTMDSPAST

As usually defined, the IC50 is the concentration at which inhibition is half-maximal. The MIC is the lowest concentration that inhibits growth of the organism. With `COc1ccc(F)cc1[C@H](Cn1c(=O)n(C(C)(C)C(=O)NC2CCCCC2)c(=O)c2c(C)c(-n3nccn3)sc21)OCCC(C)=O` [Compound I-106], the IC50 in test [1] (Table 2a) is 5 to 10 nM; in test [1] (Table 2b, additional results) it was 5 to 10 nM; in test [5] (Table 2a) it was 1 to 5 nM; in test [5] (Table 2b, additional results) it was 1 to 5 nM. Also, the MIC fell in the range of 1.1 to 2 µg/mL (≈ 1.68 to 3.05 µM) in test [2] (Table 3a); 1.01 to 2 µg/mL (≈ 1.54 to 3.05 µM) in test [2] (Table 3b (additional results)); 0.25 to 1 µg/mL (≈ 0.382 to 1.53 µM) in test [3] (Table 3a); 0.25 to 1 µg/mL (≈ 0.382 to 1.53 µM) in test [3] (Table 3b (additional results)); 0.25 to 1 µg/mL (≈ 0.382 to 1.53 µM) in test [4] (Table 3a); 0.25 to 1 µg/mL (≈ 0.382 to 1.53 µM) in test [4] (Table 3b (additional results)).
Regarding `Cc1c(-n2nccn2)sc2c1c(=O)n(C(C)(C)C(=O)NC(C)C)c(=O)n2C[C@H](OC1CCOCC1)c1cc(F)ccc1OCc1ccccc1` [Compound I-107], the IC50 in test [1] (Table 2a) was 5 to 10 nM; in test [1] (Table 2b, additional results), 5 to 10 nM; in test [5] (Table 2a), 1 to 5 nM; in test [5] (Table 2b, additional results), 1 to 5 nM. For the same compound, the MIC in test [2] (Table 3a) is 0.25 to 1 µg/mL (≈ 0.355 to 1.42 µM); in test [2] (Table 3b (additional results)) it was 0.25 to 1 µg/mL (≈ 0.355 to 1.42 µM); in test [3] (Table 3a), 0.25 to 1 µg/mL (≈ 0.355 to 1.42 µM); in test [3] (Table 3b (additional results)), 0.25 to 1 µg/mL (≈ 0.355 to 1.42 µM); in test [4] (Table 3a) it was 1.1 to 2 µg/mL (≈ 1.56 to 2.84 µM); in test [4] (Table 3b (additional results)), 0.25 to 1 µg/mL (≈ 0.355 to 1.42 µM).
For `Cc1c(-n2nccn2)sc2c1c(=O)n(C(C)(C)C(=O)NC(C)C)c(=O)n2C[C@H](OC1CCOCC1)c1cc(F)ccc1OCC1COC1` [Compound I-108], the 50% inhibitory concentration (IC50) in test [1] (Table 2a) fell in the range of 1 to 5 nM; in test [1] (Table 2b, additional results), 1 to 5 nM; in test [5] (Table 2a) it was 1 to 5 nM; in test [5] (Table 2b, additional results) it was 1 to 5 nM. Further, the minimal inhibitory concentration (MIC) in test [2] (Table 3a), in test [2] (Table 3b (additional results)), in test [3] (Table 3a), in test [3] (Table 3b (additional results)), in test [4] (Table 3a) and in test [4] (Table 3b (additional results)) was 0.25 to 1 µg/mL (≈ 0.365 to 1.46 µM) throughout.
For `COCCOc1ccc(F)cc1[C@H](Cn1c(=O)n(C(C)(C)C(=O)N2CCCC2)c(=O)c2c(C)c(-n3nccn3)sc21)OC1CCOCC1` [Compound I-109], the IC50 in test [1] (Table 2a) lay in the range of 1 to 5 nM; in test [1] (Table 2b, additional results), 1 to 5 nM; in test [5] (Table 2a), 1 to 5 nM; in test [5] (Table 2b, additional results), 1 to 5 nM. Further, the minimum inhibitory concentration (MIC) lay within 0.25 to 1 µg/mL (≈ 0.365 to 1.46 µM) in test [2] (Table 3a); 0.25 to 1 µg/mL (≈ 0.365 to 1.46 µM) in test [2] (Table 3b (additional results)); 0.25 to 1 µg/mL (≈ 0.365 to 1.46 µM) in test [3] (Table 3a); 1.01 to 2 µg/mL (≈ 1.47 to 2.92 µM) in test [3] (Table 3b (additional results)); 0.25 to 1 µg/mL (≈ 0.365 to 1.46 µM) in test [4] (Table 3a); 1.01 to 2 µg/mL (≈ 1.47 to 2.92 µM) in test [4] (Table 3b (additional results)).
Consider `Cc1c(-n2nccn2)sc2c1c(=O)n(C(C)(C)C(=O)N1CCCC1)c(=O)n2C[C@H](OC1CCOCC1)c1cc(F)ccc1OCC1COC1` [Compound I-110], for which the IC50 in test [1] (Table 2a) is 5 to 10 nM; in test [1] (Table 2b, additional results) it was 5 to 10 nM; in test [5] (Table 2a), 1 to 5 nM; in test [5] (Table 2b, additional results), 1 to 5 nM. Also, the minimal inhibitory concentration (MIC) lay within 0.25 to 1 µg/mL (≈ 0.359 to 1.44 µM) in test [2] (Table 3a); 0.25 to 1 µg/mL (≈ 0.359 to 1.44 µM) in test [2] (Table 3b (additional results)); 0.25 to 1 µg/mL (≈ 0.359 to 1.44 µM) in test [3] (Table 3a); 1.01 to 2 µg/mL (≈ 1.45 to 2.87 µM) in test [3] (Table 3b (additional results)); 0.25 to 1 µg/mL (≈ 0.359 to 1.44 µM) in test [4] (Table 3a); 1.01 to 2 µg/mL (≈ 1.45 to 2.87 µM) in test [4] (Table 3b (additional results)).
Regarding `Cc1c(-n2nccn2)sc2c1c(=O)n(C(C)(C)C(=O)NC(C)C)c(=O)n2C[C@H](OC1CCOCC1)c1cc(F)ccc1OCCO` [Compound I-111], the IC50 fell in the range of 1 to 5 nM in test [1] (Table 2a); 1 to 5 nM in test [1] (Table 2b, additional results); 0.4 to 1 nM in test [5] (Table 2a); 0.3 to 1 nM in test [5] (Table 2b, additional results). The MIC in test [2] (Table 3a) was in the range of 0.25 to 1 µg/mL (≈ 0.38 to 1.52 µM); in test [2] (Table 3b (additional results)) it was 0.06 to 0.249 µg/mL (≈ 0.0911 to 0.378 µM); in test [3] (Table 3a), 0.25 to 1 µg/mL (≈ 0.38 to 1.52 µM); in test [3] (Table 3b (additional results)), 0.06 to 0.249 µg/mL (≈ 0.0911 to 0.378 µM); in test [4] (Table 3a) it was 0.25 to 1 µg/mL (≈ 0.38 to 1.52 µM); in test [4] (Table 3b (additional results)) it was 0.25 to 1 µg/mL (≈ 0.38 to 1.52 µM).
For the compound `Cc1c(-n2nccn2)sc2c1c(=O)n(C(C)(C)C(=O)N1CCCC1)c(=O)n2C[C@H](OC1CCOCC1)c1cc(F)ccc1OCCO` [Compound I-112], the half-maximal inhibitory concentration (IC50) fell in the range of 1 to 5 nM in test [1] (Table 2a); 1 to 5 nM in test [1] (Table 2b, additional results); 0.4 to 1 nM in test [5] (Table 2a); 0.3 to 1 nM in test [5] (Table 2b, additional results). Further, the MIC in test [2] (Table 3a) fell in the range of 0.25 to 1 µg/mL (≈ 0.373 to 1.49 µM); in test [2] (Table 3b (additional results)) it was 0.25 to 1 µg/mL (≈ 0.373 to 1.49 µM); in test [3] (Table 3a), 0.25 to 1 µg/mL (≈ 0.373 to 1.49 µM); in test [3] (Table 3b (additional results)), 0.25 to 1 µg/mL (≈ 0.373 to 1.49 µM); in test [4] (Table 3a), 0.25 to 1 µg/mL (≈ 0.373 to 1.49 µM); in test [4] (Table 3b (additional results)) it was 1.01 to 2 µg/mL (≈ 1.51 to 2.98 µM).

These data come from patent publication US10800791B2, “Triazole ACC inhibitors and uses thereof” (Gilead Apollo, LLC, priority 2015, dated 2020).
